Assay results published in patent US11311513B2, “Methods, agents, and compositions for the treatment of acute myeloid leukemia” (UNIVERSITY OF CINCINNATI, priority 2017, dated 2022).

Assays:
Assay type in all cases: cell-based
[1] = tested on: THP-1 NSC-370284-resistant clones; assay: Viability of THP-1 NSC-370284-resistant clones with chemotherapy drugs; conditions: 3 resistant clones; 48 hours
Procedure: FIG. 6. […] (a) NSC-370284-resistant AML cells are sensitive to DNR. Three of the THP-1 NSC-370284-resistant clones (DRC-1-3) and the parental control were treated with DNR at indicated doses. Cell viability was tested 48 hours after the treatments. […] Relative cell viability at 48 hours post drug treatment is shown. Error bar indicates SD of triplicate experiments. (d) Synergistic therapy of NSC-370284 or UC-514321 in combination with standard chemotherapy. Secondary BMT recipient mice were transplanted with primary MLL-AF9 leukemic BM cells. […] 5-9 mice were included in each group. Kaplan-Meier curves are shown. The P values were determined by log-rank test. (e) Wright-Giemsa staining of mouse PB and BM, or H&E staining of mouse spleen and liver of MLL-AF9 secondary BMT recipients treated with “5+3” alone, or combinational therapy.
Long-term treatment with a drug may cause drug resistance in patients, and thus combinatory therapy is often required. To treat AML cells that have gained resistance to inhibitors, the effects of a set of first-line AML chemotherapy drugs including daunorubicin (DNR), cytarabine (AraC), all-trans retinoic acid (ATRA), azacytidine (AZA), and decitabine (DAC) on the viability of parental THP-1 cells and three NSC-370284-resistant clones were investigated (FIG. 6a and FIG. 18a-d).

[2] = tested on: Tet1 deficient mouse BM progenitor cells transduced with MLL-AF9; assay: Viability of MLL-AF9-transduced Tet1 deficient BM progenitor cells; conditions: 48 hrs; 200 nM (FIG. 13)
Procedure: FIG. 5. […] Gene expression levels are shown. […] ChIP-qPCR assay was carried out 48 hrs after drug treatment. Enrichment of STAT3, STAT5, or IgG at the TET1 promoter region and other regions are shown. […] BM progenitor cells of wild-type or Tet1^−/− mice were retrovirally transduced with MLL-AF9. […] Relative cell viabilities are shown. (m) Cre-Tet1f mouse BM progenitor cells were retrovirally transduced with MLL-AF9. […] Relative cell viability is shown. (n-o) THP-1 (n) and MONOMAC-6 (o) cells were infected with lentivirus of pLenti-puro vector-based Tet1 construct. […] Relative cell viability is shown. *, P<0.05; **, P<0.01, two-tailed t-test. Error bar indicates SD of triplicate experiments.
FIG. 13. […] (a-d) BM progenitor cells of wild-type or Tet1^−/− mice were retrovirally transduced with MLL-AF9. Infected cells were treated with 200 nM JAK/STAT inhibitors individually, including Pacritinib (a), KW-2449 (b), Stattic (c) or sc-355979 (d), for 48 hrs. Relative cell viabilities are shown. (e) Cre-Tet1^fl/fl mouse BM progenitor cells were retrovirally transduced with MLL-AF9. […] Cell viabilities (normalized to non-induced Cre-Tet1^fl/fl treated with DMSO control) are shown. ‘K, P<0.05; ‘K‘K, P<0.01, two-tailed t-test
siRNAs were transfected into MONOMAC-6 cells with Cell Line Nucleofector Kit V following program T-037, using the Amaxa Nucleofector Technology (Amaxa Biosystems, Berlin, Germany). Experiments were performed 48 h after transfection. Retrovirus infection of mouse BM progenitor cells were conducted as described previously with some modifications. Briefly, retrovirus vectors were co-transfected with pCL-Eco packaging vector (IMGENEX, San Diego, Calif.) into HEK293T cells using Effectene Transfection Reagent (Qiagen, Valencia, Calif.) to produce retrovirus. BM cells were harvested from a cohort of 4- to 6-week-old C57BL/6, Tet1^−/−, or Cre-Tet1^fl/fl donor mice after five days of 5-fluorouracil (5-FU) treatment, and primitive hematopoietic progenitor cells were enriched with Mouse Lineage Cell Depletion Kit (Miltenyi Biotec Inc., Auburn, Calif.). An aliquot of enriched hematopoietic progenitor cells was added to retroviral supernatant together with polybrene in cell culture plates, which were centrifuged at 2,000 g for 2 hours at 32° C. (i.e., spinoculation) and then the medium was replaced with fresh media and incubated for 20 hours at 37° C. Next day, the same procedure was repeated once. Infected cells were grown in RPMI 1640 medium containing 10 ng/mL murine recombinant IL-3, 10 ng/mL IL-6, 100 ng/mL murine recombinant SCF (R&D Systems, Minneapolis, Minn.), along with 1.0 mg/ml of G418. Experiments were performed 7 days after infection.
(§1) These experiments were conducted as described previously (Jiang, X., et al., Blockade of miR-150 Maturation by MLL-Fusion/MYC/LIN-28 Is Required for MLL-Associated Leukemia, Cancer Cell 22:524-35 (2012); Li, Z., et al., miR-196b directly targets both HOXA9/MEIS1 oncogenes and FAS tumour suppressor in MLL-rearranged leukaemia, Nat Commun 2:688 (2012)) with ApoLive-Glo Multiplex Assay Kit, or CellTiter 96 AQueous Non-Radioactive Cell Proliferation Assay Kit (Promega, Madison, Wis.).

[3] = tested on: TET1-high AML (including MONOMAC-6, THP-1, and KASUMI-1) cells; assay: MTS viability of AML cell lines versus JAK/STAT inhibitors; conditions: MTS 48 hrs; maximum concentration tested 500 nM
Procedure: FIG. 4. […] (a) Structures of NSC-370284 and UC-514321. […] Cells were treated with drugs at indicated doses. Cell viability was detected by MTS 48 hrs post-treatment. Error bar indicates SD of triplicate experiments. […] Secondary BMT recipient mice were transplanted with primary leukemic BM cells with MLL-AF9 (f) or AML-ETO9a (g). […] Kaplan-Meier curves are shown. The P values were determined by log-rank test. […] Secondary BMT recipient mice were transplanted with primary leukemic BM cells with MLL-AF10 or FLT3-ITD/NPM1^mut. […] Kaplan-Meier curves are shown. The P values were determined by log-rank test. (j) Wright-Giemsa staining of mouse PB and BM, or H&E staining of mouse spleen and liver of MLL-AF9 AML secondary BMT recipients with or without drug treatment.
as §1

SMILES	sensitivity of drug-resistant clones relative to parental THP-1 control [1]	difference in cell viability between wild-type and Tet1 deficient cells [2]	inhibitory effects on the viability of these AML cells [3]
COc1cccc2c1C(=O)c1c(O)c3c(c(O)c1C2=O)C[C@@](O)(C(C)=O)C[C@@H]3O[C@H]1C[C@H](N)[C@H](O)[C@H](C)O1 [DNR, daunorubicin]	much more sensitive	–	–
O=C(c1ccc(/C=C/c2n[nH]c3ccccc23)cc1)N1CCNCC1 [KW-2449, reference compound]	–	no significant differences	–
C1=C/COCc2cc(ccc2OCCN2CCCC2)Nc2nccc(n2)-c2cccc(c2)COC/1 [Pacritinib, reference compound]	–	no significant differences	–
O=[N+]([O-])c1ccc2c(c1)S(=O)(=O)C=C2 [Stattic, reference compound]	–	no significant differences	did not show significant inhibitory effects
O=C(NN=Cc1coc2ccccc2c1=O)c1cccnc1 [sc-355979, reference compound]	–	no significant differences	did not show significant inhibitory effects
